The CheMixHub viscosity set
± gives the uncertainty stated by the source.

Experiment: xn = mol fraction of the nth substance listed

C1=CCCCC1 + C1CCCCC1
303.15 K, 101 kPa
Conditions | viscosity [mPa·s]
x1 = 0.1133 | 0.772 ± 0.01
x1 = 0.2435 | 0.745 ± 0.01
x1 = 0.3293 | 0.725 ± 0.009
x1 = 0.3919 | 0.72 ± 0.009
x1 = 0.4866 | 0.684 ± 0.009
x1 = 0.582 | 0.678 ± 0.009
x1 = 0.7181 | 0.654 ± 0.008
x1 = 0.8663 | 0.62 ± 0.008

C=C(C)C(=O)OCC + C1CCCCC1
viscosity [mPa·s], 101 kPa
Conditions | 298.15 K | 308.15 K
x1 = 0.0581 | 0.837 ± 0.084 | 0.711 ± 0.072
x1 = 0.1534 | 0.768 ± 0.077 | 0.651 ± 0.065
x1 = 0.2549 | 0.711 ± 0.071 | 0.601 ± 0.06
x1 = 0.3548 | 0.668 ± 0.067 | 0.564 ± 0.057
x1 = 0.3935 | 0.655 ± 0.066 | 0.552 ± 0.055
x1 = 0.5465 | 0.619 ± 0.062 | 0.52 ± 0.052
x1 = 0.5568 | 0.618 ± 0.062 | 0.518 ± 0.052
x1 = 0.6264 | 0.61 ± 0.061 | 0.511 ± 0.051
x1 = 0.7559 | 0.606 ± 0.061 | 0.506 ± 0.051
x1 = 0.8548 | 0.614 ± 0.062 | 0.51 ± 0.051
x1 = 0.9399 | 0.628 ± 0.063 | 0.52 ± 0.052

CC1CCCCC1 + C1CCCCC1
303.15 K, 101 kPa
Conditions | viscosity [mPa·s]
x2 = 0.0996 | 0.6425 ± 0.0044
x2 = 0.1991 | 0.6465 ± 0.0044
x2 = 0.2949 | 0.6574 ± 0.0045
x2 = 0.3948 | 0.6697 ± 0.0045
x2 = 0.497 | 0.6849 ± 0.0046
x2 = 0.6005 | 0.7041 ± 0.0047
x2 = 0.699 | 0.7258 ± 0.0048
x2 = 0.7978 | 0.7519 ± 0.0049
x2 = 0.8955 | 0.7854 ± 0.0051

CCCNCCC + C1CCCCC1
viscosity [mPa·s], 101 kPa
Conditions | x1 = 0.01137 | x1 = 0.02125 | x1 = 0.03212 | x1 = 0.0414 | x1 = 0.05092 | x1 = 0.06219 | x1 = 0.07269 | x1 = 0.08114 | x1 = 0.09193
303.15 K | 0.8095 ± 0.0056 | 0.8028 ± 0.0055 | 0.7945 ± 0.0055 | 0.784 ± 0.0054 | 0.7745 ± 0.0054 | 0.7633 ± 0.0053 | 0.7535 ± 0.0053 | 0.7441 ± 0.0053 | 0.7334 ± 0.0052
313.15 K | 0.7072 ± 0.005 | 0.6995 ± 0.005 | 0.692 ± 0.0049 | 0.6827 ± 0.0049 | 0.6721 ± 0.0049 | 0.6596 ± 0.0048 | 0.649 ± 0.0048 | 0.6399 ± 0.0047 | 0.6296 ± 0.0047

CCOC(=O)c1ccccc1 + C1CCCCC1
viscosity [mPa·s], 101 kPa
Conditions | x1 = 0.0779 | x1 = 0.1586 | x1 = 0.2454 | x1 = 0.3327 | x1 = 0.4305 | x1 = 0.5312 | x1 = 0.6374 | x1 = 0.751 | x1 = 0.868
303.15 K | 0.82 ± 0.017 | 0.832 ± 0.017 | 0.88 ± 0.018 | 0.937 ± 0.02 | 1.025 ± 0.021 | 1.123 ± 0.023 | 1.248 ± 0.026 | 1.387 ± 0.029 | 1.552 ± 0.032
308.15 K | 0.78 ± 0.016 | 0.801 ± 0.017 | 0.84 ± 0.018 | 0.89 ± 0.019 | 0.96 ± 0.02 | 1.047 ± 0.022 | 1.157 ± 0.024 | 1.295 ± 0.027 | 1.439 ± 0.03
313.15 K | 0.708 ± 0.015 | 0.727 ± 0.015 | 0.772 ± 0.016 | 0.819 ± 0.017 | 0.885 ± 0.019 | 0.967 ± 0.02 | 1.069 ± 0.022 | 1.198 ± 0.025 | 1.33 ± 0.028

Cc1cccc([N+](=O)[O-])c1 + C1CCCCC1
303.15 K, 101.33 kPa
Conditions | viscosity [mPa·s]
x1 = 0.206 | 0.93 ± 0.02
x1 = 0.38 | 1.03 ± 0.018
x1 = 0.593 | 1.25 ± 0.017
x1 = 0.801 | 1.54 ± 0.018

c1cscn1 + C1CCCCC1
298.15 K, 101 kPa
Conditions | viscosity [mPa·s]
x1 = 0.1468 | 0.8439 ± 0.022
x1 = 0.2448 | 0.7891 ± 0.021
x1 = 0.4908 | 0.8119 ± 0.022
x1 = 0.7468 | 0.8753 ± 0.023
x1 = 0.8357 | 0.904 ± 0.024
x1 = 0.8841 | 0.928 ± 0.025
x1 = 0.9385 | 0.958 ± 0.025

CC1CCCCC1 + C1CCOC1
303.15 K, 101.33 kPa
Conditions | viscosity [mPa·s]
x2 = 0.111 | 0.604 ± 0.005
x2 = 0.2072 | 0.576 ± 0.005
x2 = 0.3062 | 0.548 ± 0.005
x2 = 0.404 | 0.525 ± 0.005
x2 = 0.4829 | 0.507 ± 0.005
x2 = 0.504 | 0.503 ± 0.005
x2 = 0.6018 | 0.487 ± 0.005
x2 = 0.7067 | 0.47 ± 0.004
x2 = 0.9006 | 0.447 ± 0.004

CCCCCl + C1CCOC1
viscosity [mPa·s], 101 kPa
Conditions | 298.15 K | 313.15 K
x2 = 0.0418 | 0.4311 ± 0.0091 | 0.3702 ± 0.0079
x2 = 0.052 | 0.434 ± 0.012 | –
x2 = 0.0524 | 0.4231 ± 0.005 | 0.3656 ± 0.0048
x2 = 0.0982 | 0.4366 ± 0.0093 | 0.3758 ± 0.008
x2 = 0.0985 | 0.439 ± 0.012 | –
x2 = 0.108 | 0.425 ± 0.005 | 0.3675 ± 0.0048
x2 = 0.153 | 0.443 ± 0.013 | –
x2 = 0.1781 | 0.442 ± 0.0094 | 0.3808 ± 0.0081
x2 = 0.2063 | 0.4287 ± 0.005 | 0.3706 ± 0.0048
x2 = 0.2076 | 0.444 ± 0.0094 | 0.3826 ± 0.0081
x2 = 0.29 | 0.449 ± 0.013 | –
x2 = 0.2991 | 0.4324 ± 0.005 | 0.3737 ± 0.0048
x2 = 0.2996 | 0.4479 ± 0.0095 | 0.3869 ± 0.0082
x2 = 0.36 | 0.452 ± 0.013 | –
x2 = 0.4 | 0.4522 ± 0.0096 | 0.3911 ± 0.0083
x2 = 0.4088 | 0.4367 ± 0.005 | 0.3772 ± 0.0048
x2 = 0.4229 | 0.455 ± 0.013 | –
x2 = 0.445 | 0.456 ± 0.013 | –
x2 = 0.4998 | 0.4547 ± 0.0096 | 0.3937 ± 0.0084
x2 = 0.507 | 0.4408 ± 0.0051 | 0.3804 ± 0.0049
x2 = 0.5395 | 0.457 ± 0.013 | –
x2 = 0.5516 | 0.4553 ± 0.0096 | 0.3943 ± 0.0084
x2 = 0.5945 | 0.458 ± 0.013 | –
x2 = 0.5979 | 0.4565 ± 0.0097 | 0.3955 ± 0.0084
x2 = 0.6074 | 0.4453 ± 0.0051 | 0.3838 ± 0.0049
x2 = 0.6605 | 0.459 ± 0.013 | –
x2 = 0.6991 | 0.458 ± 0.0097 | 0.3977 ± 0.0084
x2 = 0.7001 | 0.4495 ± 0.0051 | 0.387 ± 0.0049
x2 = 0.7649 | 0.46 ± 0.013 | –
x2 = 0.8021 | 0.4598 ± 0.0097 | 0.3997 ± 0.0085
x2 = 0.8054 | 0.4546 ± 0.0051 | 0.3907 ± 0.0049
x2 = 0.8499 | 0.46 ± 0.0097 | 0.3999 ± 0.0085
x2 = 0.8658 | 0.461 ± 0.013 | –
x2 = 0.891 | 0.4587 ± 0.0051 | 0.3939 ± 0.0049
x2 = 0.8993 | 0.4607 ± 0.0098 | 0.4 ± 0.0085
x2 = 0.9108 | 0.46 ± 0.013 | –
x2 = 0.9519 | 0.4598 ± 0.0097 | 0.4006 ± 0.0085
x2 = 0.9528 | 0.4613 ± 0.0051 | 0.3961 ± 0.0049

CCOC(=O)c1ccccc1 + C1CCOC1
viscosity [mPa·s], 101 kPa
Conditions | x1 = 0.0601 | x1 = 0.1259 | x1 = 0.198 | x1 = 0.2773 | x1 = 0.3628 | x1 = 0.4611 | x1 = 0.5719 | x1 = 0.6953 | x1 = 0.8372
303.15 K | 0.488 ± 0.017 | 0.545 ± 0.017 | 0.617 ± 0.018 | 0.706 ± 0.018 | 0.804 ± 0.019 | 0.937 ± 0.019 | 1.083 ± 0.02 | 1.257 ± 0.021 | 1.474 ± 0.023
308.15 K | 0.473 ± 0.017 | 0.524 ± 0.017 | 0.595 ± 0.018 | 0.676 ± 0.018 | 0.767 ± 0.018 | 0.885 ± 0.019 | 1.019 ± 0.02 | 1.168 ± 0.021 | 1.36 ± 0.022
313.15 K | 0.436 ± 0.017 | 0.49 ± 0.017 | 0.553 ± 0.018 | 0.626 ± 0.018 | 0.706 ± 0.018 | 0.809 ± 0.019 | 0.928 ± 0.019 | 1.063 ± 0.02 | 1.229 ± 0.021

[Li+].[O-][Cl+3]([O-])([O-])[O-] + C1CCOC1
101 kPa, x1 = 0.07
Conditions | viscosity [mPa·s]
303.15 K | 0.85 ± 0.09
308.15 K | 0.81 ± 0.08
313.15 K | 0.78 ± 0.08
318.15 K | 0.74 ± 0.07
323.15 K | 0.71 ± 0.07

C1=CCCCC1 + C1COCCO1
303.15 K, 101 kPa
Conditions | viscosity [mPa·s]
x1 = 0.1067 | 0.932 ± 0.012
x1 = 0.2617 | 0.833 ± 0.011
x1 = 0.3551 | 0.789 ± 0.01
x1 = 0.4267 | 0.754 ± 0.01
x1 = 0.4787 | 0.734 ± 0.009
x1 = 0.5637 | 0.702 ± 0.009
x1 = 0.6603 | 0.668 ± 0.009
x1 = 0.7706 | 0.634 ± 0.008
x1 = 0.8678 | 0.606 ± 0.008
